These are literature values, as cited in patent publication US6998112B2, “Sleep inducing toothpaste made with natural herbs and a natural hormone” (priority 2003, dated 2006).

The conditions of this series: in vivo.

As to Melatonin, the adverse effects entry was “isolated reports of exacerbation of depression and fatigue”.
